Test results taken from patent US20150030593A1, “COMPOSITIONS OF PENETRATION-ENHANCED TARGETING PROTEINS AND METHODS OF USE” (PERMEON BIOLOGICS, INC., priority 2013, published 2015).

Tests used:
Type in all cases: cell-based
[1] = test system: MDA-MB-468 (Her2^Low) cells; assay: Flow cytometry uptake in mixed cell population, concentration series (Example 5); conditions: 2 h; for Median Fluorescence Values, Her2− GFP-C6.5: second set; for Median Fluorescence Values, MDA-MB-468 cells (Her2−) GFP-C6.5 / Median Fluorescence Values, MDA-MB-468 cells (Her2−) C6.5-GFP: first set
Procedure: (§1) The media were replaced with serum free media containing indicated concentrations of protein listed below and incubated for 2 h. Cells were washed 3×PBS, trypsinized, fixed with 4% PFA, stained with Her2 Ab-APC for 0.5 hour, washed with PBS and then analyzed by flow cytometry with detection of GFP.
(§2) The tested proteins of the first and second sets of experiments were applied to the mixed cell population for two hours.
(§3) The above data were also plotted in FIGS. 13A-13H to show the median fluorescence value minus background fluorescence of untreated cells (background adjusted fluorescence) (Y-axis) as a function of concentration (X-axis) for each of the tested proteins in this Example. Cellular uptake of the proteins was measured by GFP fluorescence. Her2 expression level was measured by using a Her2 antibody conjugated with allophycocyanin (APC). Gating was applied to the flow cytometry data to identify Her2^1′ versus Her2^high populations. […] The Her2^low profiles (diamond) are indicative of the profile of charged GFP alone. The Her2^high profiles (square) are indicative of the profile of the charged GFP in combination with the target-binding region—C6.5 scFv. The data of sfGFP-C6.5 on the Her2^high cells reflects the profile of the target-binding region (C6.5) by itself.

[2] = test system: MDA-MB-468 (Her2^Low) cells; assay: Flow cytometry uptake in mixed cell population, time course (Example 6); conditions: 0.1 μM
Procedure: (§4) The media were replaced with serum free media containing 0.1 μM of protein listed below and incubated for 10 minutes, 30 minutes or 4 hours. Cells were washed 3×PBS, trypsinized, stained with Her2 Antibody-APC for 0.5 hours, washed with PBS and then analyzed by flow cytometry with detection of GFP.

[3] = test system: MDA-MB-468 (Her2^Low) cells; assay: Flow cytometry detection of internalized GFP protein (Example 4); conditions: 1 μM, 2 hours, serum free media
Procedure: These two types of cells express different levels of Her2 protein (FIG. 8). […] MDA-MB-468 cells express very low levels of Her2 (referred to as Her2^Low) while AU565 cells express high levels of Her2 (referred to as Her2^high).
The media were replaced with serum free media containing 1 μM of a protein listed below, and incubated for 2 hours. Cells were washed 3×PBS, trypsinized, fixed with 4% PFA, washed with PBS and then analyzed by flow cytometry with detection of GFP.
Results: Flow cytometry analysis is indicative of the amount of protein internalized into the cells. FIGS. 9A and 9B show the flow cytometry data obtained for different tested samples at various conditions. The median fluorescence values obtained from the flow cytometry peak minus the median fluorescence values of untreated cells (background fluorescence) are shown in FIGS. 10A and 10B. See also Table 7. The first column indicates identifies the GFP-component of the construct used for the particular sample treatment. The second and third columns represents fluorescence in MDA-MB-468 cells following treatment with each of the GFP proteins alone (second column; examples of use of CPMs alone) or with each of the GFP-C6.5 fusion proteins (third column; examples of fusion proteins comprising a target-binding region and a CPM region). The fourth and fifth column fluorescence in AU565 cells following treatment with each of the GFP proteins alone (fourth column; examples of use of CPMs alone) or with each of the GFP-C6.5 fusion proteins (fifth column; examples of fusion proteins comprising a target-binding region and a CPM region).

AU565 (Her2^high) cells [4] = assay: Flow cytometry uptake in mixed cell population, concentration series (Example 5); conditions: 2 h, first set
Procedure: as §1, §2, §3

AU565 (Her2^high) cells [5] = assay: Flow cytometry uptake in mixed cell population, time course (Example 6); conditions: 0.1 μM
Procedure: as §4

AU565 (Her2^high) cells [6] = assay: Flow cytometry detection of internalized GFP protein (Example 4); conditions: 1 μM, 2 hours, serum free media
SKOV-3 cells (Her2^high) = assay: Cellular uptake by fluorescence microscopy; conditions: 1 μM, 1 hour
Procedure: These images were taken to assess cellular uptake of these GFP-containing proteins by fluorescence microscopy. The images shown are an overlay of phase contrast and GFP fluorescence images.
In addition, SKOV-3 cells (Her2^high) were treated with 1 μM of proteins for 1 hour, and then images were taken to assess cellular uptake of GFP proteins by fluorescence microscopy (FIG. 11A).

sfGFP-C6.5: fusion of superfolder GFP, (S4G)6 spacer, C6.5 anti-Her2 scFv, His6
Median Fluorescence Values, Her2− GFP-C6.5 ([1]; 0.03 uM): 4,460 | Median Fluorescence Values, Her2− GFP-C6.5 ([1]; 0.1 uM): 4,824 | Median Fluorescence Values, Her2− GFP-C6.5 ([1]; 0.3 uM): 4,947 | cellular uptake (flow cytometry with detection of GFP), Her2− GFP-C6.5 ([2]; 10 min): 4,081 | cellular uptake (flow cytometry with detection of GFP), Her2− GFP-C6.5 ([2]; 30 min): 3,986 | cellular uptake (flow cytometry with detection of GFP), Her2− GFP-C6.5 ([2]; 4 h): 4,704 | median fluorescence values, MDA-MB-468 (Her2^Low) GFP-C6.5 [3]: 5,632

+15GFP-C6.5: fusion of +15GFP, (S4G)6 spacer, C6.5 scFv, His6
Median Fluorescence Values, MDA-MB-468 cells (Her2−) GFP-C6.5 ([1]; 0.03 uM): 13,012 | Median Fluorescence Values, MDA-MB-468 cells (Her2−) GFP-C6.5 ([1]; 0.1 uM): 36,343 | Median Fluorescence Values, MDA-MB-468 cells (Her2−) GFP-C6.5 ([1]; 0.3 uM): 76,116 | Median Fluorescence Values, MDA-MB-468 cells (Her2−) GFP-C6.5 ([1]; 1 uM): 155,734 | Median Fluorescence Values, AUS65 cells (Her2+) GFP-C6.5 (AU565 (Her2^high) cells [4]; 0.03 uM): 37,663 | Median Fluorescence Values, AUS65 cells (Her2+) GFP-C6.5 (AU565 (Her2^high) cells [4]; 0.1 uM): 74,673 | Median Fluorescence Values, AUS65 cells (Her2+) GFP-C6.5 (AU565 (Her2^high) cells [4]; 0.3 uM): 128,374 | Median Fluorescence Values, AUS65 cells (Her2+) GFP-C6.5 (AU565 (Her2^high) cells [4]; 1 uM): 180,065 | cellular uptake (flow cytometry with detection of GFP), Her2− GFP-C6.5 ([2]; 10 min): 10,665 | cellular uptake (flow cytometry with detection of GFP), Her2− GFP-C6.5 ([2]; 30 min): 22,262 | cellular uptake (flow cytometry with detection of GFP), Her2− GFP-C6.5 ([2]; 4 h): 144,923 | cellular uptake (flow cytometry with detection of GFP), Her2+ GFP-C6.5 (AU565 (Her2^high) cells [5]; 10 min): 18,606 | cellular uptake (flow cytometry with detection of GFP), Her2+ GFP-C6.5 (AU565 (Her2^high) cells [5]; 30 min): 35,981 | cellular uptake (flow cytometry with detection of GFP), Her2+ GFP-C6.5 (AU565 (Her2^high) cells [5]; 4 h): 148,261 | median fluorescence values, MDA-MB-468 (Her2^Low) GFP-C6.5 [3]: 313,629 | median fluorescence values, AU565 (Her2^high) GFP-C6.5 (AU565 (Her2^high) cells [6]): 413,838

C6.5-+15GFP: fusion of N-terminal C6.5 scFv, (S4G)6 spacer, +15GFP, His6
Median Fluorescence Values, MDA-MB-468 cells (Her2−) C6.5-GFP ([1]; 0.03 uM): 13,355 | Median Fluorescence Values, MDA-MB-468 cells (Her2−) C6.5-GFP ([1]; 0.1 uM): 36,070 | Median Fluorescence Values, MDA-MB-468 cells (Her2−) C6.5-GFP ([1]; 0.3 uM): 82,571 | Median Fluorescence Values, MDA-MB-468 cells (Her2−) C6.5-GFP ([1]; 1 uM): 306,260 | Median Fluorescence Values, AUS65 cells (Her2+) C6.5-GFP (AU565 (Her2^high) cells [4]; 0.03 uM): 75,821 | Median Fluorescence Values, AUS65 cells (Her2+) C6.5-GFP (AU565 (Her2^high) cells [4]; 0.1 uM): 162,337 | Median Fluorescence Values, AUS65 cells (Her2+) C6.5-GFP (AU565 (Her2^high) cells [4]; 0.3 uM): 305,944 | Median Fluorescence Values, AUS65 cells (Her2+) C6.5-GFP (AU565 (Her2^high) cells [4]; 1 uM): 822,351 | cellular uptake by fluorescence microscopy (SKOV-3 cells (Her2^high)): internalized efficiently in the cells | cellular uptake (flow cytometry with detection of GFP), Her2− C6.5-GFP ([2]; 10 min): 13,517 | cellular uptake (flow cytometry with detection of GFP), Her2− C6.5-GFP ([2]; 30 min): 17,194 | cellular uptake (flow cytometry with detection of GFP), Her2− C6.5-GFP ([2]; 4 h): 96,599 | cellular uptake (flow cytometry with detection of GFP), Her2+ C6.5-GFP (AU565 (Her2^high) cells [5]; 10 min): 37,044 | cellular uptake (flow cytometry with detection of GFP), Her2+ C6.5-GFP (AU565 (Her2^high) cells [5]; 30 min): 61,007 | cellular uptake (flow cytometry with detection of GFP), Her2+ C6.5-GFP (AU565 (Her2^high) cells [5]; 4 h): 184,844 | median fluorescence values, MDA-MB-468 (Her2^Low) GFP-C6.5 [3]: 767,627 | median fluorescence values, AU565 (Her2^high) GFP-C6.5 (AU565 (Her2^high) cells [6]): 2,170,916

B1: +2GFP-C6.5: +2GFP fused to C6.5 scFv; variant a or b not stated (protein)
scFv: QVQLLQSGAELKKPGESLKISCKGSGYSFTSYWIAWVRQMPGKGLEYMGLIYPGDSDTKYSPSFQGQVTISVDKSVSTAYLQWSSLKPSDSAVYFCARHDVGYCSSSNCAKWPEYFQHWGQGTLVTVSSGGGGSGGGGSGGGGSQSVLTQPPSVSAAPGQKVTISCSGSSSNIGNNYVSWYQQLPGTAPKLLIYGHTNRPAGVPDRFSGSKSGTSASLAISGFRSEDEADYYCAAWDDSLSGWVFGGGTKLTVLGGHGHHHHHH
modifications: left off: large carriers; small tags and cut ends
cellular uptake by fluorescence microscopy (SKOV-3 cells (Her2^high)): bound to SKOV-3 cells through Her2 but did not internalize in the cells
